From patent US11147795B2, “Neuroprotective compounds and methods of use” (ARIZONA BOARD OF REGENTS ON BEHALF OF THE UNIVERSITY OF …, priority 2014, dated 2021)

System: larvae expressing TDP-43 in motor neurons
Assay: Larval turning assay (locomotor function)
Assay type: in vivo, Drosophila
Conditions: for locomotor function measured by larval turning assays: TDP-43 expressed in motor neurons, FIGS. 1-3; for locomotor function: Student's t-test, N>20 larvae/genotype
Description: Drosophila genetics. TDP-43 was expressed in motor neurons using the GAL4-UAS bipartite expression system. D42 GAL4 was used as an expression driver and UAS-TDP-43 YFP trasgenics were used as responder lines (Estes, et al., 2011, Hum. Mol. Genet).
Locomotor function. Locomotion was assessed using quantitative larval turning assays. Crosses were carried out at 25° C. and wandering third instar larvae were placed on a grape juice plate at room temperature. After a 30 second acclimation period, larvae were gently turned ventral side up. They were observed until they turned over (dorsal side up) and began making a forward motion. The time it took to complete this task was recorded for at least 20 larvae per genotype.
Statistical analyses. Student's t-tests were performed to determine statistical significance.

[1] = larvae expressing TDPG298S in motor neurons
[2] = larvae expressing TDPWT in motor neurons

| SMILES | locomotor function measured by larval turning assays | locomotor function [1] | locomotor function [2] |
| --- | --- | --- | --- |
| CCOC(=O)C1=CCN([S@@+]([O-])C(C)(C)C)[C@H]1c1ccsc1 [CH-III-31] | significant improvement of locomotor function | improves locomotor function | improves locomotor function |
| COc1cc2c(C(=O)C(F)(F)F)c(C(F)(F)F)[nH]c2cc1F [EV-3-298] | significant improvement of locomotor function | improves locomotor function | improves locomotor function |
| CCOC(=O)C1=CCN([S@+]([O-])C(C)(C)C)[C@@H]1C[C@@H](C)CCC=C(C)C [CH-I-108] | significant improvement of locomotor function | improves locomotor function | improves locomotor function |
